According to US9357776B2, “Method for producing pest control agent” (priority 2011, dated 2016):

How the values were obtained:
Laodelphax striatellus [1] = assay: Test for control of Laodelphax striatellus, sensitive and resistant strains (rice soil drench); format: in vivo; settings: three days after release
Experimental: (§1) Rice plant seedlings grown in a pot were treated by soil drench with a liquid agent prepared to be 10% acetone-water, and to contain a predetermined concentration of a compound of the present invention. Three days after the treatment, 10 sensitive or resistant strain of second instar larvae of Laodelphax striatellus were released on each of the rice plant seedlings. After that the rice plant seedlings were allowed to stand in a thermostatic chamber at 25° C. (16-hour light period and 8-hour dark period). […] The test was duplicated. Mortality rate (%)=[Number of dead insects/(Number of survived insects+Number of dead insects)]×100
Note that the pests tested were insects bred for generations in a room for a long period (sensitive strain), and insects collected in Kumamoto Prefecture in 2006, and bred for generations in a room (field-collected strain: resistant strain).

[2] = tested on: Haemaphysalis longicornis; assay: Effect of controlling Haemaphysalis longicornis on body surface of mouse; format: in vivo; settings: mouse (ICR, male), 20 μL of 1000-fold diluted drop preparation (48% by weight Compound 1 in ethanol), three days after release
Experimental: Hair on the back of a mouse (ICR, male, 5-weeks old) in a region having a diameter of approximately 2 cm was shaved, and a 15-mL polystyrene conical tube cut to have a height of approximately 1.5 cm was bonded to this region with an instant adhesive.
Then, 20 μL of a 1000-fold diluted liquid of a pest control agent prepared according to the following formulation was added dropwise onto the body surface of the mouse within the bonded tube. After sufficient drying, […] larvae of Haemaphysalis longicornis were released into the tube, and the tube was capped.
Formulation [Drop Preparation]
The components were uniformly mixed with each other, and a drop preparation was obtained. blood-sucking inhibition rate (%)=100−[Number of […]/(Number of survived ticks+Number of dead ticks)]×100

Plutella xylostella = assay: Test for control of diamondback moth (leaf disk); format: in vivo; settings: in Brassica oleracea, foliar, 72 h, read-out: Mortality rate, Plutella xylostella
Experimental: (§2) A leaf disk having a diameter of 5.0 cm was cut out from cabbage grown in a pot. Then, a liquid agent prepared to be 50% acetone-water (to which 0.05% Tween20 was added) and to contain 500 ppm of a compound represented by formula (I) was spread over the leaf disk. After the leaf disk was air dried, second instar larvae were released on the leaf disk. After that, the leaf disk was allowed to stand in a thermostatic chamber at 25° C. (16-hour light period and 8-hour dark period). […] The test was duplicated. Mortality rate (%)=[Number of dead insects/(Number of survived insects+Number of dead insects)]×100

[3] = tested on: crude enzyme extraction liquid of housefly (Musca domestica); assay: In vitro metabolism test using crude enzyme extraction liquid of housefly; format: in vitro ADME; settings: 25° C., 40 hours, LC/MS
Experimental: As described in Pest Management Science (2003), 59(3), 347-352, and Journal of Pesticide Science (2004), 29(2), 110-116, imidacloprid is known to be inactivated by oxidative metabolism, which is thought to be one of the mechanisms for the acquisition of the resistance. To investigate effects on insects acquiring such resistance, the following experiment was carried out.
To adult housefly (Musca domestica) (0.645 g), 10 ml of a potassium phosphate buffer (pH 7.4, containing 1 mM EDTA) was added, and the adult housefly was sufficiently ground with Physcotron (Nichion Irika Kikai Seisakusho). After that, the ground material was centrifuged under conditions of 10,000 g and 15 minutes. The obtained supernatant was further centrifuged under conditions of 100,000 g and 60 minutes. Thus, precipitates were obtained. The precipitates were dissolved in 1 ml of a potassium phosphate buffer, and this solution was used as a crude enzyme solution. The enzyme extraction operations were all conducted on ice or under a condition of 4° C.
Reagents were mixed with each other at the following ratio in a tube having a capacity of 1.5 mL, and allowed to react with each other at 25° C. for 40 hours. After the reaction, 1 mL of acetone was added to the mixture, followed by stirring. Then, the formed precipitates were removed by centrifugation at 12000 rpm for 5 minutes. […]

Laodelphax striatellus [4] = assay: Test for control of Laodelphax striatellus (wheat seedling root treatment); format: in vivo; settings: 96 h, read-out: Mortality rate, Laodelphax striatellus
Experimental: Roots of wheat seedlings 48 hours after seeding were each treated with 200 μL of a liquid agent prepared to be 10% acetone-water, and to contain 100 ppm of a compound represented by formula (I). The agent was absorbed through the roots for 72 hours, and then 10 second instar larvae of Laodelphax striatellus were released on each wheat seedling. After that, the wheat seedlings were allowed to stand in a thermostatic chamber at 25° C. (16-hour light period and 8-hour dark period). […] The test was duplicated.

Nilaparvata lugens = assay: Test for control of Nilaparvata lugens, sensitive and resistant strains (rice soil drench); format: in vivo; settings: three days after release
Experimental: as §1, with “Nilaparvata lugens” for “Laodelphax striatellus”, “that,” for “that”
Note that the pests tested were as follows: Insects bred for generations in a room for a long period (sensitive strain), (I) Insects collected in Kumamoto Prefecture in 2007, and bred for generations in a room (field-collected strain: resistant strain), or (II) Insects collected in Fukuoka Prefecture in 2005, and bred for generations in a room (field-collected strain).

Aphis gossypii = assay: Test for control of cotton aphid (leaf disk); format: in vivo; settings: in Cucumis sativus, foliar, 72 h, read-out: Mortality rate, Aphis gossypii
Experimental: as §2, with “2.0” for “5.0”, “cucumber (Cucumis sativus L.)” for “cabbage”, “first” for “second”

[5] = tested on: Haemaphysalis longicornis; assay: Test for control of Haemaphysalis longicornis (dry film in glass vial); format: in vivo; settings: 24 h, read-out: Mortality rate
Experimental: Into a glass vial having a capacity of 4 mL, 30 μL of an acetone solution containing 200 ppm or 10 ppm of a compound of the present invention was introduced. The vial was placed on a shaker, and air dried, while being rotated. Thus, a dry film of the compound was formed on the inner wall of the vial. After the vial was dried for 24 hours or longer, 10 larvae of Haemaphysalis longicornis were released in the vial, and then the vial was capped. The vial was allowed to stand in a thermostatic chamber under conditions of 25° C., a humidity of 85%, and total darkness. […] The test was duplicated. Mortality rate (%)=[Number of dead insects/(Number of survived insects+Number of dead insects)]×100

[6] = 0.005 mg/seedling, all the strains
[7] = 0.01 mg/seedling, sensitive strain
[8] = 0.01 mg/seedling, strain (II) (Fukuoka 2005, field-collected)
[9] = 0.01 mg/seedling, field-collected strain (Kumamoto 2006, resistant)

SMILES	mortality at 500 ppm (Plutella xylostella)	mortality at 100 ppm (Laodelphax striatellus [4])	mortality at 500 ppm (Aphis gossypii)	further results
O=C(N=c1ccccn1Cc1ccc(Cl)nc1)C(F)(F)F [Compound 1, N-[1-((6-Chloropyridin-3-yl)methyl)pyridin-2(1H)-ylidene]-2,2,2-trifluoroacetamide]	100%	100%	100%	Mortality rate (Laodelphax striatellus [1]; [6]): ≥ 90%; blood-sucking inhibition rate [2]: 91%; total area percentage of metabolites [3]: 0.08; Mortality rate (Nilaparvata lugens; [6]): ≥ 90%; Mortality rate (Nilaparvata lugens; 0.05 mg/seedling, all the strains): 100%; mortality at 10 ppm [5]: ≥ 80%; mortality at 200 ppm [5]: ≥ 80%
O=C(N=c1ccccn1Cc1cnc(Cl)c(F)c1)C(F)(F)F [Compound 2, N-[1-((6-Chloro-5-fluoropyridin-3-yl)methyl)pyridin-2(1H)-ylidene]-2,2,2-trifluoroacetamide]	100%	100%	100%	Mortality rate (Nilaparvata lugens; [7]): 72%; Mortality rate (Nilaparvata lugens; [8]): 70%
O=C(N=c1ccccn1Cc1ccc(Br)nc1)C(F)(F)F [Compound 3, N-[1-((6-Bromopyridin-3-yl)methyl)pyridin-2(1H)-ylidene]-2,2,2-trifluoroacetamide]	100%	100%	100%	Mortality rate (Laodelphax striatellus [1]; [9]): 90%; Mortality rate (Laodelphax striatellus [1]; [7]): 100%
O=C(N=c1ccccn1Cc1ccc(Cl)nc1)C(F)(F)Cl [Compound 4, 2-chloro-N-[1-((6-Chloropyridin-3-yl)methyl)pyridin-2(1H)-ylidene]-2,2-difluoroacetamide]	100%	100%	100%	
O=C(N=c1ccccn1Cc1ccc(Cl)nc1)C(Cl)(Cl)Cl [Compound 5, 2,2,2-Trichloro-N-[1-((6-chloropyridin-3-yl)methyl)pyridin-2(1H)-ylidene]acetamide]	100%	75%	95%	
O=C(N=c1ccccn1Cc1cnc(Cl)nc1)C(F)(F)F [Compound 6, N-[1-((2-Chloropyrimidin-5-yl)methyl)pyridin-2(1H)-ylidene]-2,2,2-trifluoroacetamide]	100%	100%	100%	
O=C(N=c1ccccn1Cc1ccc(Cl)nc1)C(F)(F)C(F)(F)F [Compound 7, N-[1-((6-Chloropyridin-3-yl)methyl)pyridin-2(1H)-ylidene]-2,2,3,3,3-pentafluoropropanamide]	100%	100%	100%	
O=C(N=c1ccccn1Cc1ccc(Cl)nc1)C(F)F [Compound 8, N-[1-((6-Chloropyridin-3-yl)methyl)pyridin-2(1H)-ylidene]-2,2-difluoroacetamide]	100%	100%	100%	
O=C(N=c1ccccn1Cc1ccc(F)nc1)C(F)(F)F [Compound 19, N-[1-((6-fluoropyridin-3-yl)methyl)pyridin-2(1H)-ylidene]-2,2,2-trifluoroacetamide]	100%	100%	100%	Mortality rate (Nilaparvata lugens; [7]): 100%; Mortality rate (Nilaparvata lugens; [8]): 93%
N#Cc1nn(-c2c(Cl)cc(C(F)(F)F)cc2Cl)c(N)c1[S+]([O-])C(F)(F)F (stereo not shown) [fipronil]				Mortality rate (Laodelphax striatellus [1]; [9]): 70%; Mortality rate (Laodelphax striatellus [1]; [7]): 100%
O=[N+]([O-])NC1=NCCN1Cc1ccc(Cl)nc1 [imidacloprid, reference compound]				Mortality rate (Laodelphax striatellus [1]; [9]): 50%; Mortality rate (Laodelphax striatellus [1]; [7]): 100%; total area percentage of metabolites [3]: 2.55; Mortality rate (Nilaparvata lugens; 0.05 mg/seedling, sensitive strain): 100%; Mortality rate (Nilaparvata lugens; 0.05 mg/seedling, strain (I) (Kumamoto 2007, resistant strain)): 40%; Mortality rate (Nilaparvata lugens; 0.05 mg/seedling, strain (II) (Fukuoka 2005, field-collected)): 60%; mortality at 10 ppm [5]: 4%
